Data taken from BindingDB's records for doi:10.1016/j.ejmech.2009.11.010 (Chinese Academy of Sciences, 2010).

Biological target: T1, Cathepsin K (Homo sapiens, UniProt P43235)
T1 sequence (P43235 whole entry): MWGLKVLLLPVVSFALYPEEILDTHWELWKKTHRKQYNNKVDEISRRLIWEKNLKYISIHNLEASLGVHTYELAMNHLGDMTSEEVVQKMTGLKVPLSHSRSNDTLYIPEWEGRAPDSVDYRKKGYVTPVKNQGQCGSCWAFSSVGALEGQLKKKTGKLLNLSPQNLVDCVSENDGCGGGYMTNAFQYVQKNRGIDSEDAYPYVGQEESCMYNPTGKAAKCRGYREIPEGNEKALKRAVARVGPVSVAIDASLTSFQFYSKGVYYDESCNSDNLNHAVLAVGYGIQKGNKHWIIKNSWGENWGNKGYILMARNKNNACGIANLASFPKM
Experiment: Inhibition of human cathepsin K

Going from `CCCC[C@H](NC(=O)O[C@H](CN1CCN(c2ccc(C(F)(F)F)cc2)C1=O)C(C)(C)C)C(=O)C(=O)Nc1ccn[nH]1` [(S)-3,3-dimethyl-1-(2-oxo-3-(4-(trifluoromethyl)phenyl)imidazolidin-1-yl)butan-2-yl(S)-1-(1H-pyrazol-5-ylamino)-1,2-dioxoheptan-3-ylcarbamate] to `CCCC[C@H](NC(=O)O[C@H](Cc1nnc(-c2ccc(C(F)(F)F)cc2)o1)C(C)(C)C)C(=O)C(=O)Nc1ccn[nH]1` [[(S)-1-(2H-Pyrazol-3-ylaminooxalyl)-pentyl]-carbamic acid (R)-2,2-dimethyl-1-[5-(4-trifluoromethyl-phenyl)-[1,3,4]oxadiazol-2-ylmethyl]-propyl ester], the IC50 falls from 0.339 nM to 0.0288 nM (12-fold). The second is the more potent here.

Going from `CCCC[C@H](NC(=O)O[C@H](Cc1nnc(-c2ccc(C(F)(F)F)cc2)o1)C(C)(C)C)C(=O)C(=O)NN1CCOC1=O` [(1R)-2,2-DIMETHYL-1-({5-[4-(TRIFLUOROMETHYL)PHENYL]-1,3,4-OXADIAZOL-2-YL}METHYL)PROPYL (1S)-1-{OXO[(2-OXO-1,3-OXAZOLIDIN-3-YL)AMINO]ACETYL}PENTYLCARBAMATE] to `CCCC[C@H](NC(=O)O[C@H](Cc1nnc(-c2ccc(C(F)(F)F)cc2)o1)C(C)(C)C)C(=O)C(=O)N[C@H](C)c1ccccc1` [[(S)-1-(1-Phenyl-ethylaminooxalyl)-pentyl]-carbamic acid (R)-2,2-dimethyl-1-[5-(4-trifluoromethyl-phenyl)-[1,3,4]oxadiazol-2-ylmethyl]-propyl ester], the IC50 rises from 0.129 nM to 0.407 nM (3.2-fold).

First: CCCC[C@H](NC(=O)O[C@H](Cc1nnc(-c2ccc(F)cc2)o1)C(C)(C)C)C(=O)C(=O)NCc1cccnc1 [(R)-1-(5-(4-fluorophenyl)-1,3,4-oxadiazol-2-yl)-3,3-dimethylbutan-2-yl(S)-1,2-dioxo-1-(pyridin-3-ylmethylamino)heptan-3-ylcarbamate]
Second: CCCC[C@H](NC(=O)O[C@H](Cc1nnc(-c2ccc(F)cc2)o1)C(C)(C)C)C(=O)C(=O)N[C@H](C)c1ccccc1 [[(S)-1-(1-Phenyl-ethylaminooxalyl)-pentyl]-carbamic acid (R)-1-[5-(4-fluoro-phenyl)-[1,3,4]oxadiazol-2-ylmethyl]-2,2-dimethyl-propyl ester]
The IC50 of the first is 7.6-fold higher: 2.82 nM for the first, 0.372 nM for the second. The second is the more potent here.

First: CCCC[C@H](NC(=O)O[C@H](Cn1cnc(-c2ccc(C(F)(F)F)cc2)c1)C(C)(C)C)C(=O)C(=O)Nc1nccs1 [[(S)-1-(Thiazol-2-ylaminooxalyl)-pentyl]-carbamic acid (S)-2,2-dimethyl-1-[4-(4-trifluoromethyl-phenyl)-imidazol-1-ylmethyl]-propyl ester]
Second: CCCC[C@H](NC(=O)O[C@H](Cc1nnc(-c2ccccc2)o1)C(C)(C)C)C(=O)C(=O)N[C@H](C)c1ccccc1 [(R)-3,3-dimethyl-1-(5-phenyl-1,3,4-oxadiazol-2-yl)butan-2-yl(S)-1,2-dioxo-1-((R)-1-phenylethylamino)heptan-3-ylcarbamate]
The IC50 of the first is 24-fold higher: 5.75 nM for the first, 0.24 nM for the second.

In the case of `CCCC[C@H](NC(=O)O[C@@H](Cc1nnc(-c2ccccc2)o1)C(C)(C)C)C(=O)C(=O)N[C@H](C)c1ccccc1` [[(S)-1-(1-Phenyl-ethylaminooxalyl)-pentyl]-carbamic acid (S)-2,2-dimethyl-1-(5-phenyl-[1,3,4]oxadiazol-2-ylmethyl)-propyl ester], the IC50 is reported as 457 nM.
